Reference: patent US10208088B1, “Low molecular polypeptide ZY4 and applications thereof” (Sichuan Synlight Biotech Ltd., priority 2015, dated 2019)
≈ marks a conversion by molar mass, not a printed value. Where two headings read alike, the source gives them in different places.

Key:
Staphylococcus aureus = conditions: 37° C., 24 h
Method: (§4) Prepare Escherichia coli, Candida albicans, Staphylococcus aureus, Bacillus subtilis, Staphylococcus haemolyticus, Staphylococcus epidermidis, Staphylococcus cohnii solutions respectively, incubate at 37° C. for 18 h, for standby;
(§5) Prepare Broth Agar Medium, and sterilize it for standby;
(§6) Dissolve the Broth Agar Medium, cool down to 50° C., add 1 ml of Escherichia coli, Candida albicans, Staphylococcus aureus, Bacillus subtilis, Staphylococcus haemolyticus, Staphylococcus epidermidis, Staphylococcus cohnii solutions respectively, shake gently and pour into a sterile petri dish, gently shake the medium to evenly pave on the dish;
(§7) Place the filters into a cooled dish using a sterile tweezer orderly, cover with a tile cover and mark, then place to a 37° C. incubator for incubation for 24 h;

lung cancer cell A549 = experiment: MTT assay against lung cancer cell A549; type: cell-based
Method: 1. Collect the lung cancer cell A549 in the logarithmic phase to prepare cell suspension, adjust its concentration to 5×10^6-10×10^6/ml, add 100 ul to each hole, pave the plate to adjust the cell density to 1000-10000 holes; fill the holes on the edges with sterile PBS;
(§1) 2. Incubate cells under the condition of 5% CO2 and 37° C. until the cell monolayer are paved on 96-hole plate bottom; after cell adhesion for 2-12 h, add the low molecular polypeptide ZY4 at a concentration of 100 ug/ml and 200 ug/ml, paclitaxel at a concentration of 10 ug/ml and 5 ug/ml to incubate for 16-48 h under the condition of 5% CO2 and 37° C., and then observe under an inverted microscope;
(§2) 3. Add 20 ul of 5 mg/ml MTT solution to each hole, to continue to culture 4 h, and then draw the culture solution in the hole;
(§3) 4. Add 150 ul of DMSO to each hole, place to a shaker for oscillation 10 min at a low speed, to allow the crystals fully dissolved, measure the absorbance values of each hole at OD 490 nm using a ELISA Reader; at the same time, set the zero hole and control hole.

Candida albicans = conditions: 37° C., 24 h
Method: as §4, §5, §6, §7

[1] = test system: Staphylococcus haemolyticus (09A4394 anti-ampicillin); conditions: 37° C., 24 h
Method: as §4, §5, §6, §7

[2] = test system: Staphylococcus epidermidis (09A3726 anti-ampicillin); conditions: 37° C., 24 h
Method: as §4, §5, §6, §7

Escherichia coli = conditions: 37° C., 24 h
Method: as §4, §5, §6, §7

liver cancer cell HepG2 = conditions: NS control 1.0
Method: 1. Collect the liver cancer cell HepG2 in the logarithmic phase to prepare cell suspension, adjust its concentration to 5×10^6-10×10^6/ml, add 100 ul to each hole, pave the plate to adjust the cell density to 1000-10000 holes; fill the holes on the edges with sterile PBS;
as §1, with “and the same volume” for “paclitaxel at a concentration”, “NS as control,” for “10 ug/ml and 5 ug/ml”
as §2, §3

[3] = test system: gastric cancer cell SGC7901
Method: 1. Collect the gastric cancer cell SGC7901 in the logarithmic phase to prepare cell suspension, adjust its concentration to 5×10^6-10×10^6/ml, add 100 ul to each hole, pave the plate to adjust the cell density to 1000-10000 holes; fill the holes on the edges with sterile PBS;
as §1, with “50-300 ug/ml,” for “100 ug/ml”, “the same volume” for “200 ug/ml, paclitaxel at a concentration”, “NS as control,” for “10 ug/ml and 5 ug/ml”
as §2, §3

melanoma cell A357 = conditions: NS control 1.0
Method: 1. Collect the melanoma cell A357 in the logarithmic phase to prepare cell suspension, adjust its concentration to 5×10^6-10×10^6/ml, add 100 ul to each hole, pave the plate to adjust the cell density to 1000-10000 holes; fill the holes on the edges with sterile PBS;
as §1, with “and the same volume” for “paclitaxel at a concentration”, “NS as control,” for “10 ug/ml and 5 ug/ml”
as §2, §3

[4] = test system: Staphylococcus aureus (09B2499); conditions: 37° C., 24 h
Method: as §4, §5, §6, §7

P. acnes ATCC6919 = conditions: 2 mg/ml ointment on left ear skin, treated for 1 day; 0.20 mm before treatment, PEG control 0.43 mm
Method: Select Kunming male mice at a weight of 18 g each, and randomly divide them into 3 groups, 9 mice each group, respectively the treatment group, positive control group, negative control group. Each mouse is anaesthetized with 50 ul of ketamine by intraperitoneal injection, and then injected with 20 ul of resuspended bacteria solution via intracutaneous injection in the left ear of each mouse;
Disinfect the left ears of mice with a clean alcohol cotton ball, and measure the thickness of the ears of mice, results are shown in FIG. 2.

[5] = test system: Staphylococcus cohnii (09B2490 anti-ampicillin); conditions: 37° C., 24 h
Method: as §4, §5, §6, §7

P. acnes ATCC11817 = conditions: 2 mg/ml ointment on left ear skin, once every 8 h, 3 times, mice sacrificed 24 h later; PEG control 9.44×10^5
Method: Select Kunming male mice at a weight of 18 g each, and randomly divide them into 3 groups, 6 mice each group, respectively the treatment group, positive control group, negative control group. Each mouse is anaesthetized with 120 ul of 1% pentobarbital sodium by intraperitoneal injection, and then injected with 20 ul of resuspended bacteria solution via intracutaneous injection in the left ear of each mouse;
Disinfect the left ears of mice with a clean alcohol cotton ball, cut off the left ears into pieces, transfer to a homogenizer for homogenization. Add 1 ml of NS for homogenization for one ear;
Dilute the homogenate to 1,000-fold, take 50 ul of diluent and apply to a brain heart infusion agar plate, culture at 37° C. under the anaerobic condition for 72 h, and count the colonies.

[6] = test system: breast cancer cell MDA-435
Method: 1. Collect the breast cancer cell MDA-435 in the logarithmic phase to prepare cell suspension, adjust its concentration to 5×10^6-10×10^6/ml, add 100 ul to each hole, pave the plate to adjust the cell density to 1000-10000 holes; fill the holes on the edges with sterile PBS;
as §1, with “50-300 ug/ml,” for “100 ug/ml”, “the same volume” for “200 ug/ml, paclitaxel at a concentration”, “NS as control,” for “10 ug/ml and 5 ug/ml”
as §2, §3

Bacillus subtilis = conditions: 37° C., 24 h
Method: as §4, §5, §6, §7

For CC(C)[C@H](N)C(=O)N[C@H]1CSSC[C@@H](C(=O)N[C@H](C(N)=O)C(C)C)NC(=O)[C@H](Cc2c[nH]c3ccccc23)NC(=O)[C@H](CCCCN)NC(=O)[C@H](CCCCN)NC(=O)[C@H](Cc2c[nH]c3ccccc23)NC(=O)[C@H](CCCCN)NC(=O)[C@H](CCCNC(=N)N)NC(=O)[C@H](CCCCN)NC(=O)[C@H](Cc2c[nH]c3ccccc23)NC(=O)[C@H](CCCCN)NC(=O)[C@H](CCCCN)NC(=O)[C@H](Cc2c[nH]c3ccccc23)NC(=O)[C@H](CCCNC(=N)N)NC(=O)[C@H](CCCCN)NC1=O [ZY4], the Minimum inhibitory concentration (Staphylococcus aureus) was 2.14 µg/mL (≈ 0.901 µM), the “OD value (MTT, OD 490 nm)” value (lung cancer cell A549; A549, 100 ug/ml ZY4, 16-48 h) was 0.5 and the “OD value (MTT, OD 490 nm)” value (lung cancer cell A549; A549, 200 ug/ml ZY4, 16-48 h) was 0.3. For the same molecule, the Minimum inhibitory concentration (Candida albicans) was 2.12 µg/mL (≈ 0.893 µM), the Minimum inhibitory concentration [1] was 2.17 µg/mL (≈ 0.914 µM) and the Minimum inhibitory concentration [2] was 2.45 µg/mL (≈ 1.03 µM). For the same molecule, the Minimum inhibitory concentration (Escherichia coli) was 12.15 µg/mL (≈ 5.12 µM), the “OD value (MTT, OD 490 nm)” value (liver cancer cell HepG2; HepG2, 100 ug/ml ZY4, 16-48 h) was 0.89 and the “OD value (MTT, OD 490 nm)” value (liver cancer cell HepG2; HepG2, 200 ug/ml ZY4, 16-48 h) was 0.6. The “OD value (MTT, OD 490 nm)” value ([3]; SGC7901, 50 ug/ml ZY4, 16-48 h) was 0.65, the “OD value (MTT, OD 490 nm)” value ([3]; SGC7901, 100 ug/ml ZY4, 16-48 h) was 0.57 and the “OD value (MTT, OD 490 nm)” value ([3]; SGC7901, 200 ug/ml ZY4, 16-48 h) was 0.2. For the same molecule, the “OD value (MTT, OD 490 nm)” value ([3]; SGC7901, 300 ug/ml ZY4, 16-48 h) was 0.09, the “OD value (MTT, OD 490 nm)” value (melanoma cell A357; A357, 100 ug/ml ZY4, 16-48 h) was 1.0 and the “OD value (MTT, OD 490 nm)” value (melanoma cell A357; A357, 200 ug/ml ZY4, 16-48 h) was 0.72. The Minimum inhibitory concentration [4] was 2.25 µg/mL (≈ 0.948 µM), the “thickness of mice ear” value (P. acnes ATCC6919) was 0.25 mm and the Minimum inhibitory concentration [5] was 1.10 µg/mL (≈ 0.463 µM). For the same molecule, the “CFU of P. acnes after treatment” value (P. acnes ATCC11817) was 2.1×10^5 CFU, the “OD value (MTT, OD 490 nm)” value ([6]; MDA-435, 50 ug/ml ZY4, 16-48 h) was 0.7 and the “OD value (MTT, OD 490 nm)” value ([6]; MDA-435, 100 ug/ml ZY4, 16-48 h) was 0.61. The “OD value (MTT, OD 490 nm)” value ([6]; MDA-435, 200 ug/ml ZY4, 16-48 h) was 0.20, the “OD value (MTT, OD 490 nm)” value ([6]; MDA-435, 300 ug/ml ZY4, 16-48 h) was 0.17 and the Minimum inhibitory concentration (Bacillus subtilis) was 1.10 µg/mL (≈ 0.463 µM).

CC(=O)O[C@H]1C(=O)[C@@]2(C)[C@H]([C@H](OC(=O)c3ccccc3)[C@]3(O)C[C@H](OC(=O)[C@H](O)[C@@H](NC(=O)c4ccccc4)c4ccccc4)C(C)=C1C3(C)C)[C@]1(OC(C)=O)CO[C@@H]1C[C@@H]2O [paclitaxel, reference compound] was tested, and the “OD value (MTT, OD 490 nm)” value (lung cancer cell A549; A549, 10 ug/ml paclitaxel (first statement), 16-48 h) was 0.5 and the “OD value (MTT, OD 490 nm)” value (lung cancer cell A549; A549, 10 ug/ml paclitaxel (second statement), 16-48 h) was 0.7.
